From article PMC4658394 (ChemMedChem, 2015)

Tests used:
MMP-12 = MMP-12 (Homo sapiens, UniProt P39900); assay: MMP-12 fluorogenic substrate assay with competing metalloprotein MT; conditions: MMP-12 0.68 nM
MMP-2 = biological target: T1, MMP-2 (Homo sapiens, UniProt P08253); assay: MMP-2 fluorogenic substrate assay with competing metalloproteins; type: biochemical; conditions: MMP-2 2.7 nM
T1 sequence (P08253 110-660): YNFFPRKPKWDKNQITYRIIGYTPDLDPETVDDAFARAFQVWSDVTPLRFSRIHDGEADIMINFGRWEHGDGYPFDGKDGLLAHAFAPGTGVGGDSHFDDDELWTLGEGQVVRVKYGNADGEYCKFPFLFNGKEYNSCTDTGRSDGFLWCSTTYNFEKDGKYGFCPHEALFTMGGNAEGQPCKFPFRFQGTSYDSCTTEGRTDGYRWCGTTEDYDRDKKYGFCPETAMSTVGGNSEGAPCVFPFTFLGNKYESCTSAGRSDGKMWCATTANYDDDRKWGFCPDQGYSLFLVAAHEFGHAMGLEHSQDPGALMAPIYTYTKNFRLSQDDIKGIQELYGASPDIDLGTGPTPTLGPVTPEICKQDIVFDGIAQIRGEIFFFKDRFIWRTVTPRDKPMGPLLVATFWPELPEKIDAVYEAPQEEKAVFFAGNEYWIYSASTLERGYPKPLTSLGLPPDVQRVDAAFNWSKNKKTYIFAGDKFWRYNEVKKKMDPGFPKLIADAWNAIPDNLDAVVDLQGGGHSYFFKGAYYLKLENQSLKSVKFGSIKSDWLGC

HDAC-1 = HDAC-1 (Homo sapiens, UniProt Q13547); assay: HDAC-1 fluorogenic assay with competing metalloprotein MT; type: biochemical; conditions: 53 nM SAHA, HDAC-1 0.25 μM, various concentrations of MT
Sequence of HDAC-1 (Q13547 whole entry): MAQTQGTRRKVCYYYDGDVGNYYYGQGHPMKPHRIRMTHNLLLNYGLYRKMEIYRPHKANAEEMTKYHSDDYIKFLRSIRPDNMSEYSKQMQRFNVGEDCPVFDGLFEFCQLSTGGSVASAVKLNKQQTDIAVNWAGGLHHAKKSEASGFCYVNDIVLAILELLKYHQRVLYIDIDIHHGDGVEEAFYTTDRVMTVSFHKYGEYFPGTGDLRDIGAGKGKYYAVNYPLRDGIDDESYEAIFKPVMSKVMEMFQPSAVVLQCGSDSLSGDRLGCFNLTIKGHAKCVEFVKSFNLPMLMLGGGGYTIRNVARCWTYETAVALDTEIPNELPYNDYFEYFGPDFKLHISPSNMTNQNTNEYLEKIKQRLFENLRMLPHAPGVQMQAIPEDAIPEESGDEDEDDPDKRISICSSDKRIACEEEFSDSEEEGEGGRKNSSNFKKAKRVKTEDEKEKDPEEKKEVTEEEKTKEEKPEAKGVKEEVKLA

HDAC-6 = biological target: T2, HDAC-6 (Homo sapiens, UniProt Q9UBN7); assay: HDAC-6 fluorogenic assay with competing metalloprotein MT; type: biochemical; conditions: 22 nM SAHA, HDAC-6 0.16 μM, various concentrations of MT
T2 sequence (Q9UBN7 1-1215): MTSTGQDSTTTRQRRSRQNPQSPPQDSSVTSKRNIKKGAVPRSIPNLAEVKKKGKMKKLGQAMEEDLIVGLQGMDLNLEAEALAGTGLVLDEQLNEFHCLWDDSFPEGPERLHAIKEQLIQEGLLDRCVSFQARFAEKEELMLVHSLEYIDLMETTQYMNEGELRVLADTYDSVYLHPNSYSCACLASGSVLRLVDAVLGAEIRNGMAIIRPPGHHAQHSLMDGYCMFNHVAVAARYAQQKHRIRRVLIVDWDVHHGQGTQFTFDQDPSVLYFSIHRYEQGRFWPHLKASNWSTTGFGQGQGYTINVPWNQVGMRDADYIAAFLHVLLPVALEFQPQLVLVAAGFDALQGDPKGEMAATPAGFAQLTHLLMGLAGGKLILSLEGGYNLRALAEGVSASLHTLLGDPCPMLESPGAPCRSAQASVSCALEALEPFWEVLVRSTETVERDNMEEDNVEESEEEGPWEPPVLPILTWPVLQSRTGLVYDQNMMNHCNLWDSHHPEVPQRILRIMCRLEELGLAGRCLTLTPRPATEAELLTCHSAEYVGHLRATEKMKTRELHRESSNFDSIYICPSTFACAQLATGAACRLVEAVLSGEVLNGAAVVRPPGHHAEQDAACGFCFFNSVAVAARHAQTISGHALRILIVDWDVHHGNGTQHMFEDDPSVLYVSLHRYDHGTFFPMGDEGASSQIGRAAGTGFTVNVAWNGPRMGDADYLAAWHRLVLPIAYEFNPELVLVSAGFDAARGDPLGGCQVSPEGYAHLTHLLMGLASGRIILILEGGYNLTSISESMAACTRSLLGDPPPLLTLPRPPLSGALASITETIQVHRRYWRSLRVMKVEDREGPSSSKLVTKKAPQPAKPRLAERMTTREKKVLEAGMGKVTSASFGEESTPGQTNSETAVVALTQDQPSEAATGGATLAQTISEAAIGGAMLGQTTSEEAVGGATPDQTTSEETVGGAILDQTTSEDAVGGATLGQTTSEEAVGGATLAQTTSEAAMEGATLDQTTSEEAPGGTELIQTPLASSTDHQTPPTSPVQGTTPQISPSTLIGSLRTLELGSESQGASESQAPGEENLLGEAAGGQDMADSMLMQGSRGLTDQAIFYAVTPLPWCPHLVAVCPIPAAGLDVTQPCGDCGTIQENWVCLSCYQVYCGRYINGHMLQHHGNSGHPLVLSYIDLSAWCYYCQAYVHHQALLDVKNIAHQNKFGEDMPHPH

Sequence of MMP-12 (P39900 106-470): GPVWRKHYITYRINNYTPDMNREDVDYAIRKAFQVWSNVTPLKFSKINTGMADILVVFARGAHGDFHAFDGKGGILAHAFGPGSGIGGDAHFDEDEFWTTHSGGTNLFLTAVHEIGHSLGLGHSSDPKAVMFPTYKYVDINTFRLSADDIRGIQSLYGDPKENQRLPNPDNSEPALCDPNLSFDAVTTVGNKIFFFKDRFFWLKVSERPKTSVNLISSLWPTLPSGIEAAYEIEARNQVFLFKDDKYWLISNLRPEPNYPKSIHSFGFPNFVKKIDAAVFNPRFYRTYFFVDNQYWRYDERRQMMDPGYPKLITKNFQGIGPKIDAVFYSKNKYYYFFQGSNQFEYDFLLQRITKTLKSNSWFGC

SMILES: O=C(NCc1ccc(-c2ccccc2)cc1)c1cccc(=O)n1O [1,2-HOPO-2]
- effect of large excess of MT on activity against MMP-12 (MMP-12; 30 nM inhibitor, up to 9 μM MT (300 equiv over inhibitor)): did not perturb the activity
- IC50 (MMP-12; read-out: IC50 against MMP-12): 30 nM

SMILES: COc1ccc(S(=O)(=O)N(Cc2cccnc2)[C@@H](C(=O)NO)C(C)C)cc1 [CGS]
- MMP-2 inhibition in the presence of combinations of competing proteins (MMP-2; CGS 3 nM, MT, Mb, Tf, hCAII combinations 400 nM each): no drop in inhibition
- specificity for MMP-2 in the presence of excess MT (MMP-2; CGS 3 nM or NSA 30 nM, MT up to 50 equiv over MPi): maintain their specificity
- effect of Mb, Tf or hCAII as competing protein on MMP-2 inhibition (MMP-2; NSA 30 nM or CGS 3 nM, up to 166 equiv over CGS, up to 50 equiv over NSA): not titrating the MPi away from the MMP-2 target

SMILES: O=C(CCCCCCC(=O)Nc1ccccc1)NO [SAHA, suberolylanilide hydroxamic acid]
- change in SAHA activity against HDAC-1 with increasing MT (HDAC-1): no substantial decrease
- change in SAHA activity against HDAC-6 with increasing MT (HDAC-6): no substantial decrease
